Where no end group is shown, it is not given here.
Test system: LRF (luteinizing hormone release factor) induced luteinizing hormone (LH) release
Assay: In vitro test for LRF antagonist activity in rat anterior pituitary cell cultures
Assay type: cell-based
Source text: Pentapeptides of this invention were screened for LRF antagonist activity in vitro using rat anterior pituitary cell cultures as described by Vale et. al. [Endocrinology, 91, 562 (1972)]. The inhibition of LRF (luteinizing hormone release factor) induced luteinizing hormone (LH) release into the culture medium is the endpoint in this in vitro bioassay.

[1] = compound Molar Conc. 1 × 10^-7, LRF 3.5 × 10^-10, rat anterior pituitary cell cultures
[2] = compound Molar Conc. 3 × 10^-7, LRF 3.5 × 10^-10, rat anterior pituitary cell cultures
[3] = compound Molar Conc. 5 × 10^-8, LRF 3.5 × 10^-10, rat anterior pituitary cell cultures
[4] = compound Molar Conc. 6 × 10^-7, LRF 3.5 × 10^-10, rat anterior pituitary cell cultures
[5] = compound Molar Conc. 1 × 10^-6, LRF 2.5 × 10^-10, rat anterior pituitary cell cultures

In the case of “N^α -t-Butoxycarbonyl-N^im -benzyl-L-histidyl-O-methyl-L-tyrosyl-O-benzyl-L-seryl-L-tryptophyl-D-alanine N-ethylamide”, the “% LH Release Inhibition” value [1] was 69%, the “LH Value” [1] was 17.2 ng/mL and the “% LH Release Inhibition” value [2] was 90%. For the same substance, the “LH Value” [2] was 10.16 ng/mL, the “% LH Release Inhibition” value [3] was 56% and the “LH Value” [3] was 21.61 ng/mL. The “% LH Release Inhibition” value [4] was 98% and the “LH Value” [4] was 7.72 ng/mL.
For “LRF: luteinizing hormone releasing factor, formed in the hypothalamus; stimulates secretion of luteinizing hormone; used as the stimulus in the bioassay (QHWSYGLRPG; ends and bridges not checked; UniProt P01148 24-33, looked up) [reference compound]”, the “LH Value” (LRF alone, Molar Conc. 2.5 × 10^-10 (control of second experiment; saline control 7.70)) was 36.96 ng/mL and the “LH Value” (LRF alone, Molar Conc. 3.5 × 10^-10 (control of first experiment; saline control 6.46)) was 40.46 ng/mL.
In the case of “N^α -t-Butoxycarbonyl-N^im -benzyl-L-histidyl-O-methyl-L-tyrosyl-O-benzyl-L-seryl-L-tryptophyl-D-alanine methyl ester”, the “% LH Release Inhibition” value [5] was 69% and the “LH Value” [5] was 16.89 ng/mL.

Reference: patent US4062835A, “Pentapeptides and methods for their production” (Parke, Davis & Company, priority 1976, dated 1977)
